Data set [1] relates to hiPSC-CM (iCell Cardiomyocytes^2). The data set can be described thus: RTCA CardioECR assessment (impedance and electrophysiology parameters). The following applies: human, 72 h. The procedure: (§1) Culture media change was performed every 2 days.
After seeding on fibronectin-coated xCELLigence ePlates (Agilent Technologies, Inc. Santa Clara, CA, USA), iCell^2 CM were monitored continuously through impedance electrodes. The following impedance parameters were measured: Cell Index (CI, measure of cell “health” and monolayer integrity), beating rate (BR) and amplitude (CI Amplitude, magnitude of contraction). Electrophysiology-like parameters (Field Potential Duration (FPD), considered as a surrogate for QT in in vivo studies, and Spike Amplitude (SA), depolarization induced by Na^+ channel opening) were measured starting from day 4–6, following the monolayer formation. […] All RTCA CardioECR data were double normalized (DMSO control and the baseline) with no further statistical group comparison for the normalized parameters. The variability of the data within the treatment groups was assessed by standard deviation.

For data set [2] the test system is unchanged. The data set can be described thus: Intracellular miRNA expression by RT-qPCR in hiPSC-CM pellets after 72-hour treatment. As to the method: as §1
Total RNA was extracted from hiPSC-CM using the miRNeasy 96 Kit (Qiagen, Hilden, Germany) following the manufacturer’s recommendations. After the extraction, RNA purity was assessed by NanoDrop™ 8000 Spectrophotometer (Thermo Fisher Scientific Inc.). 5–10 ng/μL of RNA per sample were reverse transcribed and pre-amplified by using the TaqMan™ Advanced miRNA cDNA Synthesis Kit (Thermo Fisher Scientific Inc.). The synthesized cDNA was used for RT-qPCR with selected TaqMan™ assays (Thermo Fischer Scientific Inc.). RT-qPCR was carried out following the Applied Biosciences TaqMan miRNA expression assay protocol on a ViiA7 instrument (Thermo Fisher Scientific, Inc.). […] Therefore, to maximize the number of drugs and concentrations, explored in the same study, we pooled the triplicates for intracellular profiling of miRNAs. Therefore, no statistical analysis was performed on the data of miRNA profiling in the pellets of hiPSC-CM.
Following RTCA CardioECR assessment, hiPSC-CM cell pellets were collected, and total RNA was extracted and purified to investigate miRNAs upregulation by RT-qPCR. […] For the initial assessment of intracellular miRNAs in 12 different treatments, encompassing various drug classes, we used a panel of 17 miRNAs, which we selected from the publicly available data focusing mainly on in vitro models and structural cardiotoxicants (Supplementary Table S2).

For data set [3] the following is noted: ref extensive literature search, cited from earlier work.

The structures appear in SMILES notation. Read-outs that look alike come from different tables or passages of the source.

For the compound `C#Cc1cccc(Nc2ncnc3cc(OCCOC)c(OCCOC)cc23)c1` [Erlotinib], in data set [1], the “Beating Rate MEC” value was found to be 0.77 µM; the “Beating rate (BR) MEC” value worked out at 0.77 µM; the “RTCA, MEC (BR)” value was 0.77 µM (BR); the “Spike Amplitude (SA) MEC” value is on record as 0.23 µM. For the same compound, in data set [2], the “miRNAs hiPSC-CM pellet, MEC overall” value was 0.23 µM and the “miRNAs upregulated at the MEC overall (hiPSC-CM pellet)” value is given as “miR-1-3p, miR-21-5p, miR-34a-5p, miR-208b-3p”. Besides, the “intracellular miRNA upregulation in hiPSC-CM, in words” value in data set [2] (human, 72 h) is “upregulation of three miRNAs (hsa-miR-146b-5p, hsa-miR-182-5p, hsa-miR-365a-5p)”. Besides, the Cmax total in data set [3] (Supplementary Table 1) was 3.15 to 4.8 µM. In addition, in data set [3] (Table 1), the Cmax total was 3.15 to 4.80 µM.
